The target in the experiment is PolQ ATPase enzyme (1-894) (Homo sapiens (Human), UniProt O75417). Description: Polθ ATPase enzymatic assay (0.5 nM enzyme concentration), ADP-Glo. The experiment is classed as biochemical. The settings on record: 0.5 nM PolQ ATPase enzyme (1-894); average IC50. The procedure, abridged: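 Human PolQ ATPase domain (1-894), 0.5 nM, preincubated 15 min at rt with 10-point inhibitor series in 50 mM Tris pH 7.5, 10% glycerol, 5 mM DTT, 10 mM MgCl2, 0.1 mg/ml BSA.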
PolQ ATPase enzyme (1-894), sequence (O75417 1-894): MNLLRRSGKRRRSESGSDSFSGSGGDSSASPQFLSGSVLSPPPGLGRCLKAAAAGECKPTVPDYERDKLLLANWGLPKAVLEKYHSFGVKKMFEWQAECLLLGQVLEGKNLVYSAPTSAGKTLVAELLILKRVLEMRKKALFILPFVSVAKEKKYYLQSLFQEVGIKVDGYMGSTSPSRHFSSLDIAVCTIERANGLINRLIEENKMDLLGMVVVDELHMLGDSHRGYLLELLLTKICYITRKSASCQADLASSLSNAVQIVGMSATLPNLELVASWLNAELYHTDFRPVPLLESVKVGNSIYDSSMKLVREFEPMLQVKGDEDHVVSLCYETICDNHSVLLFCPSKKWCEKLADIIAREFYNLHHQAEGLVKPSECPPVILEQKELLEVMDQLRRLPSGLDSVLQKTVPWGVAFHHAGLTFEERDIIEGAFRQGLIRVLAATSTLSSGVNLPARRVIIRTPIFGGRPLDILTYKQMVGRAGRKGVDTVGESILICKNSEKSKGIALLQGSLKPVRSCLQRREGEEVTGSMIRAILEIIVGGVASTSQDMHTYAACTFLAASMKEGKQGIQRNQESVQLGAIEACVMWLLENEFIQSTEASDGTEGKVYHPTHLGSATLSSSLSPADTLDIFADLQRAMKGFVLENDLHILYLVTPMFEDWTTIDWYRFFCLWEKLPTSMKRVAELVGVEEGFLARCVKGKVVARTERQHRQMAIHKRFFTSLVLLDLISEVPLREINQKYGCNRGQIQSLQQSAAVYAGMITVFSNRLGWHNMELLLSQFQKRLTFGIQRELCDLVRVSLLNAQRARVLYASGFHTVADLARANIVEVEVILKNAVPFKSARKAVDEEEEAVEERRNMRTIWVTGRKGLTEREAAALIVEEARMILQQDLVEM
For orientation: In ADP-Glo the light output rises with the ADP produced.
What is called IC50 is the concentration at which inhibition is half-maximal. Low values mean greater potency in that assay, high ones weaker potency in that assay. `COc1cnc(C(F)F)cc1-c1cc(C#CC(C)(C)N2CC(C)(C)C2)ncc1C(=O)Nc1nnc(C#CC2CC2)s1` [Compound 560] displayed an IC50 of 1.15 nM.

The molecule `COc1cnc(C(F)F)cc1-c1cc(C#CCN2C(=O)CCC2=O)ncc1C(=O)Nc1nnc(C#CC2CC2)s1` [Compound 561] returned a concentration for half-maximal inhibition (IC50) of more than 100 nM. The same measure for `C#C[C@H]1C[C@@H]1c1nnc(NC(=O)c2cnc(-n3cccc(F)c3=O)cc2-c2cc(C(F)F)ncc2OC)s1` [Compound 562, 2″-(difluoromethyl)-N-(5-((1S,2S)-2-ethynylcyclopropyl)-1,3,4-thiadiazol-2-yl)-3-fluoro-5″-methoxy-2-oxo-2H-[1,2′:4′,4″-terpyridine]-5′-carboxamide]: less than 0.25 nM. `COc1cnc(C(F)F)cc1-c1cc(-n2ccc(C)cc2=O)ncc1C(=O)Nc1nnc([C@H]2C[C@@H]2c2ccc(C#N)cc2)s1` [Compound 563] returned a 50% inhibitory concentration (IC50) of less than 0.25 nM. `CCOC(=O)N1CCN(c2cc(-c3cc(C(F)F)ncc3OC)c(C(=O)Nc3nnc(C#CC4CC4)s3)cn2)C(=O)C12CC2` [Compound 564] showed a concentration for half-maximal inhibition (IC50) of 0.38 nM. For `C#C[C@H]1C[C@@H]1c1nnc(NC(=O)c2cnc(N3CCN(C(=O)OCC)C4(CC4)C3=O)cc2-c2cc(C(F)F)ncc2OC)s1` [Compound 565] the value was 1.1 nM; for `COc1cnc(C(F)F)cc1-c1cc(-n2ccc(C)cc2=O)ncc1C(=O)Nc1nnc(C2CC3(CCC3)C2)s1` [Compound 566], 2 nM; for `COc1cnc(C(F)F)cc1-c1cc(-n2ccc(C)cc2=O)ncc1C(=O)Nc1nnc(C2CC(C)(C)C2)s1` [Compound 567], 4.3 nM. For `COc1cnc(C(F)F)cc1-c1cc(-n2ccc(C)cc2=O)ncc1C(=O)Nc1nnc(CC(C)(C)OC)s1` [Compound 568] the value was 45 nM; for `C#C[C@H]1C[C@@H]1c1nnc(NC(=O)c2cnc(-n3ccc(CO)cc3=O)cc2-c2cc(C(F)F)ncc2OC)s1` [Compound 571], less than 0.25 nM. The same measure for `C#C[C@H]1C[C@@H]1c1nnc(NC(=O)c2cnc(C#CCN3CCOCC3)cc2-c2cc(C(F)F)ncc2OC)s1` [Compound 573]: 1 nM; for `C#C[C@H]1C[C@@H]1c1nnc(NC(=O)c2cnc(N3CCN(C)C4(CC4)C3=O)cc2-c2cc(C(F)F)ncc2OC)s1` [Compound 574]: 1.1 nM; for `C#C[C@H]1C[C@@H]1c1nnc(NC(=O)c2cnc(-n3cccc(C(F)(F)F)c3=O)cc2-c2cc(C(F)F)ncc2OC)s1` [Compound 575]: 0.32 nM. `COc1cnc(C(F)F)cc1-c1cc(-n2ccc(C)cc2=O)ncc1C(=O)Nc1nnc(C(C)(C)OC)s1` [Compound 576] yielded a concentration for half-maximal inhibition (IC50) of 29 nM. On to `C#C[C@H]1C[C@@H]1c1nnc(NC(=O)c2cnc(Oc3cc(Cl)ccn3)cc2-c2cc(C(F)F)ncc2OC)s1` [Compound 577], for which the IC50 was less than 0.25 nM. The same measure for `COc1cnc(C(F)F)cc1-c1cc(-n2ccc(C)cc2=O)ncc1C(=O)Nc1nnc(COC(C)(C)C)s1` [Compound 578]: 25 nM; for `COc1cnc(C(F)F)cc1-c1cc(C#CCN2CCCCC2)ncc1C(=O)Nc1nnc(C#CC2CC2)s1` [Compound 589]: 0.7 nM. For `C#C[C@H]1C[C@@H]1c1nnc(NC(=O)c2cnc(-n3cccc(Cl)c3=O)cc2-c2cc(C(F)F)ncc2OC)s1` [Compound 591] the value was less than 0.25 nM. For `C#C[C@H]1C[C@@H](c2nnc(NC(=O)c3cnc(-n4ccc(C)cc4=O)cc3-c3cc(C(F)F)ncc3OC)s2)C1` [Compound 594] the value was 3 nM; for `C#C[C@H]1C[C@H](c2nnc(NC(=O)c3cnc(-n4ccc(C)cc4=O)cc3-c3cc(C(F)F)ncc3OC)s2)C1` [Compound 595], 2.9 nM; for `COc1cnc(C(F)F)cc1-c1cc(C#CCN2CC[S+]([O-])CC2)ncc1C(=O)Nc1nnc(C#CC2CC2)s1` [Compound 596], 0.45 nM. On to `C=C1CC(c2nnc(NC(=O)c3cnc(-n4ccc(C)cc4=O)cc3-c3cc(C(F)F)ncc3OC)s2)C1` [Compound 597], for which the half-maximal inhibitory concentration (IC50) was 3.6 nM. For `COc1cnc(C(F)F)cc1-c1cc(C#CCn2cccn2)ncc1C(=O)Nc1nnc(C#CC2CC2)s1` [Compound 598] the value was 15 nM; for `COc1cnc(C(F)F)cc1-c1cc(C#CCn2cc(C)cn2)ncc1C(=O)Nc1nnc(C#CC2CC2)s1` [Compound 599], 21 nM. For `COc1cnc(C(F)F)cc1-c1cc(C#CCN2CCCC2)ncc1C(=O)Nc1nnc(C#CC2CC2)s1` [Compound 600] the value was 0.6 nM; for `COc1cnc(C(F)F)cc1-c1cc(C#CCn2ccnc2)ncc1C(=O)Nc1nnc(C#CC2CC2)s1` [Compound 601], 2.7 nM. The same measure for `COCc1nnc(NC(=O)c2cnc(-n3ccc(C)cc3=O)cc2-c2cc(C(F)F)ncc2OC)s1` [Compound 602]: 11 nM; for `COc1cnc(C(F)F)cc1-c1cc(-n2ccc(C)cc2=O)ncc1C(=O)Nc1nnc(CC(=O)N(C)C)s1` [Compound 603]: 40 nM. In turn, `COc1cnc(C(F)F)cc1-c1cc(-n2cccc(Cl)c2=O)ncc1C(=O)Nc1nnc([C@H]2C[C@@H]2C(F)(F)F)s1` [Compound 607] gave an IC50 of 0.95 nM. For `COc1cnc(C(F)F)cc1-c1cc(-n2cccc(Cl)c2=O)ncc1C(=O)Nc1nnc([C@H]2C[C@@H]2C)s1` [Compound 608] the value was 0.79 nM. For `COc1cnc(C(F)F)cc1-c1cc(C#CCN2CCOCC2)ncc1C(=O)Nc1nnc([C@H]2C[C@@H]2C(F)(F)F)s1` [Compound 609] the value was 3.1 nM; for `COc1cnc(C(F)F)cc1-c1cc(-n2ccc(OC3COC3)cc2=O)ncc1C(=O)Nc1nnc(C#CC2CC2)s1` [Compound 610], 0.27 nM.

Turning to `COc1cnc(C(F)F)cc1-c1cc(-n2ccc(OC3CCN(C)CC3)cc2=O)ncc1C(=O)Nc1nnc(C#CC2CC2)s1` [Compound 611], half-maximal inhibition (IC50) required 1.2 nM. The same measure for `COc1cnc(C(F)F)cc1-c1cc(-n2ccc(N3CC4(COC4)C3)cc2=O)ncc1C(=O)Nc1nnc(C#CC2CC2)s1` [Compound 613]: 0.35 nM.

For the molecule `COc1cnc(C(F)F)cc1-c1cc(-n2ccc(N(C)C3COC3)cc2=O)ncc1C(=O)Nc1nnc(C#CC2CC2)s1` [Compound 614], the 50% inhibitory concentration (IC50) amounted to 0.4 nM. For `C#C[C@H]1C[C@@H]1c1nnc(NC(=O)c2cnc(-n3ccc(OC4COC4)cc3=O)cc2-c2cc(C(F)F)ncc2OC)s1` [Compound 617] the value was less than 0.25 nM; for `COc1cnc(C(F)F)cc1-c1cc(-n2ccc(C)cc2=O)ncc1C(=O)Nc1nnc(COc2cnn(C)c2)s1` [Compound 621], 6.3 nM. Take `COc1cnc(C(F)F)cc1-c1cc(-n2ccc(C)cc2=O)ncc1C(=O)Nc1nnc([C@H]2C[C@@H]2C(F)F)s1` [Compound 623]: the 50% inhibitory concentration (IC50) is less than 0.25 nM. The same measure for `C#C[C@H]1C[C@@H]1c1nnc(NC(=O)c2cnc(-n3ccc(Cl)cc3=O)cc2-c2cc(C(F)F)ncc2OC)s1` [Compound 624]: 1.1 nM. The same measure for `C#C[C@H]1C[C@@H]1c1nnc(NC(=O)c2cnc(-n3ccc(N4CC5(COC5)C4)cc3=O)cc2-c2cc(C(F)F)ncc2OC)s1` [Compound 627]: 0.3 nM. For `COc1cnc(C(F)F)cc1-c1cc(C#CCN(C)C)ncc1C(=O)Nc1nnc(C#CC2CC2)s1` [Compound 628] the value was less than 0.25 nM; for `COc1cnc(C(F)F)cc1-c1cc(C#CCC(C)(C)O)ncc1C(=O)Nc1nnc([C@@H]2C[C@H]2c2ccn(C)n2)s1` [Compound 630], 8.5 nM. The molecule `COc1cnc(C(F)F)cc1-c1cc(C#CCC(C)(C)O)ncc1C(=O)Nc1nnc([C@H]2C[C@@H]2c2ccn(C)n2)s1` [Compound 631] yielded a concentration for half-maximal inhibition (IC50) of 0.93 nM.

The values above are taken from patent publication US20260022114A1, “N-(5-SUBSTITUTED-[(1,3,4-THIADIAZOLYL) OR (1,3-THIAZOLYL)](SUBSTITUTED)CARBOXAMIDE COMPOUNDS, PHARMACEUTICAL COMPOSITIONS, AND METHODS OF PREPARING THE AMIDE COMPOUNDS AND OF THEIR USE” (Repare Therapeutics Inc., priority 2022, published 2026).
